The assay deals with IGFBP-3 (Homo sapiens, UniProt P17936). The assay is described as follows: BIAcore competition assay, IGFBP-3 binding to immobilized IGF-I. The settings on record: for IGF-I Inhibition IC50 (mut)/IC50 (wt): bp3-01-ox variants by BIAcore, wt = bp3-01-ox. How it is done: A. BIAcore™ Competition Assay (for IGFBP-3 Binders)
IGF-I was immobilized on a dextran chip for inhibition assays using a BIAcore™ 2000 surface-plasmon-resonance device (BIAcore, Inc., Piscataway, N.J.) to measure free binding protein. […] Serial dilutions of peptide were mixed with a constant concentration (40 nM) of IGFBP-3. After incubation for >1 hour at room temperature, an aliquot of 20 μL was injected at a flow rate of 20 μL/min over the IGF-I chip. Following the injection, a response reading was taken to measure the relative amount of IGFBP-3 bound to the IGF-I.
On the technique in general: SPR reads the build-up and loss of mass on a sensor chip optically.

The mark [1] stands for this setting: 40 nM IGFBP-3, 400 to 800 RU immobilized IGF-I, read-out: BIAcore Assay IC50, inhibition of IGF-I binding to IGFBP-3.
Where [2] appears, read: bp3-01-ox variants by BIAcore competition assay, read-out: IGF-I Inhibition IC50.

Where two headings read alike, the source gives them in different places. Positions of bridges follow the written chain, without caps; N, C: chain ends. Residues, ends and D or L forms follow the SMILES beside them.

By IC50 is commonly meant the midpoint of a concentration-inhibition curve.

IGFBP-3, sequence (P17936 28-291): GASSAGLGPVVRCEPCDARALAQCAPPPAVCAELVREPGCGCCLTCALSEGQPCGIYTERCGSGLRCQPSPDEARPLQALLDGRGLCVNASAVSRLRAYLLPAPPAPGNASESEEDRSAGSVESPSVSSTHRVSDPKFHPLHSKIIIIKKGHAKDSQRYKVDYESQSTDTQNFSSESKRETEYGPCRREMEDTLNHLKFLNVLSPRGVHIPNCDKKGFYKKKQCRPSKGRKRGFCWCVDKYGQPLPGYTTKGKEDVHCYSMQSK

For `CC[C@H](C)[C@@H]1NC(=O)[C@H](C(C)C)NC(=O)[C@H](Cc2ccc(O)cc2)NC(=O)CNC(=O)[C@@H]2CCCN2C(=O)CNC(=O)[C@H](CCC(=O)O)NC(=O)[C@H](Cc2ccccc2)NC(=O)[C@@H](NC(=O)[C@H](CCC(=O)O)NC(=O)[C@H](CO)NC(=O)[C@H](CCC(=O)O)NC(=O)[C@@H](N)CCC(=O)O)CSSC[C@@H](C(=O)NCC(=O)N[C@@H](CC(C)C)C(=O)N[C@H](C(=O)NCC(=O)O)C(C)C)NC1=O` [BP3-4B3.3] (H-EESECFEGPGYVICGLVG-OH; disulfide 5-14; N-terminus and C-terminus assumed), under setting [1], the IC50 was determined as 80 µM. On the same count and under the same terms, as for `CC[C@H](C)[C@@H]1NC(=O)[C@@H](NC(=O)[C@@H](NC(=O)[C@H](Cc2c[nH]c3ccccc23)NC(=O)CNC(=O)[C@H](CC(=O)O)NC(=O)[C@H](CC(C)C)NC(=O)[C@@H](N)CCC(=O)O)C(C)C)CSSC[C@@H](C(=O)N[C@@H](Cc2ccc(O)cc2)C(=O)N[C@@H](CC(C)C)C(=O)N[C@@H](C)C(=O)N[C@@H](CCC(=O)O)C(=O)NCC(N)=O)NC(=O)[C@H](CC(C)C)NC(=O)[C@H](CC(N)=O)NC(=O)[C@H](CCC(N)=O)NC(=O)[C@H](CCC(=O)O)NC(=O)CNC(=O)[C@H](C(C)C)NC(=O)[C@H](CCCCN)NC1=O` [BP3-23] (H-ELDGWVCIKVGEQNLCYLAEG-NH2; disulfide 7-16; N-terminus assumed), the figure is 220 µM; as for `CC(C)C[C@H](NC(=O)[C@@H](NC(=O)[C@H](Cc1ccc(O)cc1)NC(=O)[C@@H]1CSSC[C@H](NC(=O)[C@@H](NC(=O)[C@@H](NC(=O)[C@H](CCCCN)NC(=O)[C@H](Cc2ccccc2)NC(=O)[C@@H](N)Cc2c[nH]c3ccccc23)[C@@H](C)O)C(C)C)C(=O)N[C@@H](Cc2ccc(O)cc2)C(=O)N[C@@H](CCC(=O)O)C(=O)N[C@@H](Cc2c[nH]c3ccccc23)C(=O)N[C@@H](CCC(=O)O)C(=O)N[C@@H](CC(=O)O)C(=O)N[C@@H](CCC(=O)O)C(=O)N[C@@H](C(C)C)C(=O)N[C@@H](CCC(N)=O)C(=O)N1)[C@@H](C)O)C(=O)N[C@@H](CCC(=O)O)C(=O)N[C@@H](CCC(=O)O)C(=O)NCC(N)=O` [BP3-24] (H-WFKTVCYEWEDEVQCYTLEEG-NH2; disulfide 6-15), 100 to 300 µM; as for `CC[C@H](C)[C@H](NC(=O)[C@H](Cc1ccc(O)cc1)NC(=O)[C@H](C)NC(=O)CNC(=O)[C@@H](NC(=O)[C@@H](N)CCCNC(=N)N)C(C)C)C(=O)N[C@@H](CO)C(=O)N[C@H]1CSSC[C@@H](C(=O)N[C@@H](Cc2c[nH]c3ccccc23)C(=O)N[C@H](C(=O)N[C@@H](CCC(=O)O)C(=O)N[C@@H](CC(=O)O)C(=O)N[C@@H](CC(C)C)C(=O)N[C@@H](CC(C)C)C(=O)N[C@@H](CC(=O)O)C(=O)NCC(N)=O)C(C)C)NC(=O)[C@H](CCC(=O)O)NC(=O)[C@H]([C@@H](C)O)NC(=O)[C@H](CCC(=O)O)NC(=O)[C@H](CO)NC1=O` [BP3-25] (H-RVGAYISCSETECWVEDLLDG-NH2; disulfide 8-13), over 1000 µM. Compound `CSCC[C@H](NC(=O)[C@@H]1CSSC[C@H](NC(=O)[C@H](CC(=O)O)NC(=O)[C@@H](NC(=O)CNC(=O)[C@@H](N)[C@@H](C)O)C(C)C)C(=O)N[C@@H](CCC(N)=O)C(=O)N[C@H]2CSSC[C@H](NC(=O)[C@H](Cc3c[nH]cn3)NC(=O)[C@H](C(C)C)NC(=O)[C@@H]3CCCN3C(=O)CNC2=O)C(=O)N[C@@H](C(C)C)C(=O)N1)C(=O)N[C@@H](CC(=O)O)C(=O)N[C@@H](Cc1c[nH]c2ccccc12)C(=O)N[C@@H](C)C(=O)O` [BP06, TGVDCQC*GPVHC*VCMDWA] (H-TGVDCQCGPVHCVCMDWA-OH; disulfide 5-14, 7-12; N-terminus and C-terminus assumed) had an IC50 of 5 µM. The same measure, in the same setting: with `CSCC[C@@H]1NC(=O)[C@H](Cc2ccc(O)cc2)NC(=O)[C@@H]2CSSC[C@H](NC(=O)[C@H](CC(C)C)NC(=O)[C@@H]3CCCN3C1=O)C(=O)N[C@@H](CC(C)C)C(=O)N[C@H](C(=O)N[C@@H](Cc1ccc(O)cc1)C(=O)N[C@@H](CC(=O)O)C(=O)N[C@@H](CO)C(=O)N[C@@H](CC(=O)O)C(=O)O)CSSC[C@H](NC(=O)[C@H](CC(N)=O)NC(=O)[C@H](C)NC(=O)[C@@H](NC(=O)[C@@H](N)[C@@H](C)O)C(C)C)C(=O)N[C@@H](CC(=O)O)C(=O)N2` [BP08, TVANCDC*YMPLC*LCYDSD] (H-TVANCDCYMPLCLCYDSD-OH; disulfide 5-14, 7-12; N-terminus and C-terminus assumed) the figure was 15 µM.

In the case of `CC[C@H](C)[C@@H]1NC(=O)[C@H](Cc2ccc(O)cc2)NC(=O)CNC(=O)[C@H](CCC(N)=O)NC(=O)[C@H](CC(=O)O)NC(=O)[C@H](Cc2c[nH]cn2)NC(=O)[C@H](CCCNC(=N)N)NC(=O)[C@H](CC(=O)O)NC(=O)[C@H](Cc2c[nH]c3ccccc23)NC(=O)[C@@H](N)CSSC[C@@H](C(=O)N[C@H](C(=O)N[C@H](C(=O)N[C@@H](CC(=O)O)C(=O)N[C@@H](CO)C(=O)O)[C@@H](C)O)[C@@H](C)O)NC1=O` [BP13] (H-CWDRHDQGYICTTDS-OH; disulfide 1-11), the IC50 under setting [1] is over 1000 µM. For the compound `CC(C)C[C@@H]1NC(=O)[C@H](Cc2ccc(O)cc2)NC(=O)[C@H](Cc2c[nH]c3ccccc23)NC(=O)[C@H](CCC(=O)O)NC(=O)[C@H](C)NC(=O)[C@H](C(C)C)NC(=O)[C@@H]2CCCN2C(=O)[C@H](Cc2c[nH]c3ccccc23)NC(=O)[C@@H](NC(=O)[C@@H](NC(=O)[C@@H](N)CCC(=O)O)C(C)C)CSSC[C@@H](C(=O)N[C@@H](CC(N)=O)C(=O)O)NC1=O` [bp3-27] (H-EVCWPVAEWYLCN-OH; disulfide 3-12; N-terminus and C-terminus assumed), the “IGF-I Inhibition IC50 (mut)/IC50 (wt)” value worked out at 1.4. Further, the IC50 under setting [2] is 2.8 µM. Take `CC(C)C[C@@H]1NC(=O)[C@H](Cc2ccc(O)cc2)NC(=O)[C@H](Cc2c[nH]c3ccccc23)NC(=O)[C@H](CCC(=O)O)NC(=O)[C@H](C)NC(=O)[C@H](C(C)C)NC(=O)[C@@H]2CCCN2C(=O)[C@H](Cc2c[nH]c3ccccc23)NC(=O)[C@@H](NC(=O)[C@@H](NC(=O)[C@H](CCC(=O)O)NC(=O)[C@@H](N)CCC(=O)O)C(C)C)CSSC[C@@H](C(=O)N[C@@H](CC(N)=O)C(=O)O)NC1=O` [bp3-28] (H-EEVCWPVAEWYLCN-OH; disulfide 4-13 (inferred); N-terminus and C-terminus assumed): the “IGF-I Inhibition IC50 (mut)/IC50 (wt)” value is reported as 2.7. Besides, under setting [2], the 50% inhibitory concentration (IC50) stood at 5.4 µM. Regarding `CC(C)C[C@@H]1NC(=O)[C@H](Cc2ccc(O)cc2)NC(=O)[C@H](Cc2c[nH]c3ccccc23)NC(=O)[C@H](CCC(=O)O)NC(=O)[C@H](C)NC(=O)[C@H](C(C)C)NC(=O)[C@@H]2CCCN2C(=O)[C@H](Cc2c[nH]c3ccccc23)NC(=O)[C@@H](NC(=O)[C@@H](NC(=O)[C@H](CCC(=O)O)NC(=O)[C@H](CCC(=O)O)NC(=O)[C@H](CO)NC(=O)[C@H](C)N)C(C)C)CSSC[C@@H](C(=O)N[C@@H](CC(N)=O)C(=O)O)NC1=O` [bp3-30] (H-ASEEVCWPVAEWYLCN-OH; disulfide 6-15; N-terminus and C-terminus assumed), the “IGF-I Inhibition IC50 (mut)/IC50 (wt)” value is given as 2.8. Also, the half-inhibitory concentration (IC50) under setting [2] came to 5.6 µM.

Source of the values: patent US6632794B1, “Insulin-like growth factor agonist molecules” (Genentech, Inc., priority 1997, dated 2003).
